Experimental data reported in publication PMC6962712, “Glucose-6-Phosphate Upregulates Txnip Expression by Interacting With MondoA” (Frontiers in Molecular Biosciences, 2020).

Target: T1, MondoA/Mlx (Homo sapiens, UniProt Q9HAP2)
T1 construct: gene MLXIP; endogenous full-length MondoA/Mlx heterodimer in nuclear extract of Bcap37 cells, not purified; with Max-like protein X
T1 sequence (Q9HAP2 2-919): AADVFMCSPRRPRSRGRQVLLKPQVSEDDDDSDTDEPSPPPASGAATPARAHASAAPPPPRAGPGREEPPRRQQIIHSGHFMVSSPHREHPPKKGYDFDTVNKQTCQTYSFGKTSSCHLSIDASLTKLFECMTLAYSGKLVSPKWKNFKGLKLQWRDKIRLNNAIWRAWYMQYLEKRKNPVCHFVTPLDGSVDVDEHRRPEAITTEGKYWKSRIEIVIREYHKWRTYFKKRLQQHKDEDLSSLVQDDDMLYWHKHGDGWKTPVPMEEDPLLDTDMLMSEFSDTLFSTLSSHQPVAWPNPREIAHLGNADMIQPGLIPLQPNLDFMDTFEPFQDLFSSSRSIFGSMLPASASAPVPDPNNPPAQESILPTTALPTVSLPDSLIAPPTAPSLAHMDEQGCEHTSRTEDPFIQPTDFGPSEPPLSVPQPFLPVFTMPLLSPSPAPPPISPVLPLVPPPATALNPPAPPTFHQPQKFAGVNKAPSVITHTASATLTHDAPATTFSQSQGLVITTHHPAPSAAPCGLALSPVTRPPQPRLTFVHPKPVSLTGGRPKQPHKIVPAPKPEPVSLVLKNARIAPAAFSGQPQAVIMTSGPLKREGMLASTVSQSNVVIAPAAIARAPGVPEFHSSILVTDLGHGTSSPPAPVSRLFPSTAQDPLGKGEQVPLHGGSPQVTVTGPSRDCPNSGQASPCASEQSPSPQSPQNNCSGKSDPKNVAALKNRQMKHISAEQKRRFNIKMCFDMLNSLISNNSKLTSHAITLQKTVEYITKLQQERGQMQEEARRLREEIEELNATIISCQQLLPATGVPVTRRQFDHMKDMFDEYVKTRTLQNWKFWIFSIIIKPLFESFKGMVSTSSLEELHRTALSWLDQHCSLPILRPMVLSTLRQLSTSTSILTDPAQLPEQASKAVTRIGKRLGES
T1 sequence (Q9UH92 1-298 partner): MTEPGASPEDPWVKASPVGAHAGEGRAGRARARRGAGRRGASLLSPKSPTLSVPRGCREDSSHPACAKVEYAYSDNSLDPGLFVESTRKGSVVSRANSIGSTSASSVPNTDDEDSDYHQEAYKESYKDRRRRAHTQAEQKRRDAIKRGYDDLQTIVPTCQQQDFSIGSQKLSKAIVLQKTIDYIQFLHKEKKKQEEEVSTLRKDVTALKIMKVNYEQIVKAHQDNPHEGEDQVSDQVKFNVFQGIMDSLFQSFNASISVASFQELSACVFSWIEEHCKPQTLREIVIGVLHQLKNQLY
Assay: EMSA, biotinylated Txnip ChoRE probe
Type: biochemical
Conditions: Bcap37 nuclear extract; G6PNa2 added in vitro (e.g. 0.05 and 0.25 mM); activator of promoter binding; indirect read-out, not a direct binding test

## O=P(O)(O)OC[C@H]1OC(O)[C@H](O)[C@@H](O)[C@@H]1O (stereo partly shown) [G6PNa2]
  EMSA, biotinylated Txnip ChoRE probe: binding of MondoA to the promoter probe was significantly promoted by the activation of G6PNa2
